Where two headings read alike, the source gives them in different places.
Key:
in vivo = assay: in vivo; set-up: species or system mice (CF1 S female); settings: sc, mouse
[1] = tested on: morphine-induced Straub tail in mice; assay: Narcotic antagonist (anti-Straub tail) test in mice; assay type: in vivo; settings: ip, 10 min; mouse, compound intraperitoneal, 10 min later 53 mg/kg morphine sulfate s.c.; compounds of the invention as hydrochloride salt; 135 mg/kg or higher = inactive; read-out: Antistraub Tail ED50 (Mouse ED50 Values)
[2] = tested on: pain induced by phenylquinone (writhing syndrome); assay: Phenylquinone writhing test (PQW), analgesic activity in mice; assay type: in vivo, mice (fasted female white mice)
Description: Exp. Biol. Med. 95, 729 (1957). […] Rev. 11 115-145 (1947).

[3] = tested on: Straub tail induced by morphine sulfate; assay: Modified Straub Tail Antagonism test; assay type: in vivo, mice; settings: Mus musculus, sc; test drug subcutaneous in 1% methyl cellulose with 1.25% Tween 80; morphine sulfate 35 mg/kg i.p. 5 min later; observed after 15 min for 5 min; read-out: ED 50 (modified Straub Tail Antagonism)
Procedure: The Straub Tail Antagonism test was modified by giving test drugs (in 1% methyl cellulose with 1.25% "Tween 80") subcutaneously, followed by intraperitoneal injection of morphine sulfate (at 35 mg/kg) 5 minutes after the test drug. […] ED 50's were calculated as above with a 95% confidence limit as described by Litchfield, J. Pharmacol. Exp. Ther. 96, 99 (1949).

[4] = subcutaneous, within 25 minutes after dosing, compounds of the invention as hydrochloride salt, 135 mg/kg or higher = inactive, read-out: Straub Tail ED50 (Mouse ED50 Values)
[5] = 0.5 h, mouse, oral, observed for 10 min commencing 30 min after administration, compounds of the invention as hydrochloride salt, 135 mg/kg or higher = inactive, read-out: PQW ED50 (Mouse ED50 Values, POW)

Row | Compound | ED50 at 25 min (in vivo; [4]) | ED50 [1] | ED50 [2, 5] | other results
1 | CC(=O)Oc1ccc2c3c1O[C@H]1C(F)=CC[C@H]4[C@@H](C2)N(CC2CC2)CC[C@]314 [Compound 29, 17-Cyclopropylmethyl-6,7-didehydro-4,5α-epoxy-6-fluoro-3-acetoxymorphinan] | > 18 mg/kg | 0.0022 mg/kg | 1.3 mg/kg | ED50 ([2]; Mus musculus, sc, 0.25 h, subcutaneous, fifteen minutes after injection, read-out: ED50 (analgesic, subcutaneous injection)): 0.0016 mg/kg
2 | Oc1ccc2c3c1OC1C(F)(F)CC[C@H]4[C@@H](C2)N(CC2CC2)CC[C@]314 (stereo partly drawn) [Compound 17, 17-Cyclopropylmethyl-4,5-epoxy-6,6-difluoro-3-hydroxymorphinan] | > 54 mg/kg | 0.003 mg/kg |  | ED50 [3]: 0.0033 mg/kg; ED50 ([2]; 0.5 h, mouse, oral, * peak time value (maximum activity within 30 min of administration), compounds of the invention as hydrochloride salt, read-out: PQW ED50 (Mouse ED50 Values, POW), peak time value): 2.6 mg/kg
3 | COc1ccc2c3c1O[C@H]1C(F)=CC[C@H]4[C@@H](C2)N(C)CC[C@]314.Cl [Compound 2, 17-Methyl-6,7-didehydro-4,5-epoxy-6-fluoro-3-methoxymorphinan Hydrochloride] |  |  | 8.5 mg/kg | 
4 | COc1ccc2c3c1O[C@H]1C(F)(F)CC[C@H]4[C@@H](C2)N(C)CC[C@@]341.Cl [Compound 4, 17-Methyl-4,5-epoxy-6,6-difluoro-3-methoxymorphinan Hydrochloride] | 10 mg/kg | > 81 mg/kg |  | 
5 | COc1ccc2c3c1OC1C(F)(F)CC[C@H]4[C@@H](C2)N(CC2CC2)CC[C@]314 (stereo partly drawn) [Compound 15, 17-Cyclopropylmethyl-4,5-epoxy-6,6-difluoro-3-methoxymorphinan] | > 54 mg/kg |  |  | 
6 | COc1ccc2c3c1O[C@H]1[C@@H](O)C=C[C@H]4[C@@H](C2)N(C)CC[C@@]341 [Codeine PO4, reference compound] | 202 mg/kg |  |  | 
7 | CN1CC[C@]23c4c5ccc(O)c4O[C@H]2[C@@H](O)C=C[C@H]3[C@H]1C5 [Morphine SO4, reference compound] |  |  |  | ED50 at 25 min (in vivo; 135 mg/kg): 48 mg/kg
8 | COc1ccc2c3c1O[C@H]1C(F)(F)CC[C@@]4(O)[C@@H](C2)N(CC2CCC2)CC[C@]314.Cl [Compound 26, 17-Cyclobutylmethyl-4,5α-epoxy-6,6-difluoro-14β-hydroxy-3-methoxymorphinan Hydrochloride] | > 135 mg/kg |  |  | 
9 | CC(C)=CCN1CCC2(C)c3cc(O)ccc3CC1C2C (stereo not drawn) [Pentazocine, reference compound] |  |  |  | ED50 [3]: 1.9 mg/kg
10 | COc1ccc2c3c1OC1C(F)C=CC4C(C2)N(C)CCC341 (stereo not drawn) [Ayer 3,137,701, reference compound] | 63 mg/kg |  |  | 
11 | COc1ccc2c3c1OC1C(F)=CC[C@H]4[C@@H](C2)N(CC2CC2)CC[C@]314 (stereo partly drawn) [Compound 16, 17-Cyclopropylmethyl-6,7-didehydro-4,5-epoxy-6-fluoro-3-methoxymorphinan] | > 135 mg/kg |  |  | 
12 | COc1ccc2c3c1OC1C(F)(F)CC[C@H]4[C@@H](C2)N(CC2CCC2)CC[C@]314.Cl (stereo partly drawn) [Compound 10, 17-Cyclobutylmethyl-4,5-epoxy-6,6-difluoro-3-methoxymorphinan Hydrochloride] | > 81 mg/kg |  |  | 
13 | CC(=O)Oc1ccc2c3c1O[C@H]1C(F)(F)CC[C@H]4[C@@H](C2)N(CC2CC2)CC[C@@]341 [Compound 30, 17-Cyclopropylmethyl-4,5α-epoxy-6,6-difluoro-3-acetoxymorphinan] | > 18 mg/kg | 0.0031 mg/kg | 2.2 mg/kg | 
14 | CN1CC[C@]23c4c5ccc(O)c4OC2C(F)=CC[C@H]3[C@H]1C5.Cl (stereo partly drawn) [Compound 6, 17-Methyl-6,7-didehydro-4,5-epoxy-6-fluoro-3-hydroxymorphinan Hydrochloride] | 17 mg/kg |  | 8 mg/kg | 
15 | Cl.Oc1ccc2c3c1OC1C(F)=CC[C@H]4[C@@H](C2)N(CC2CC2)CC[C@]314 (stereo partly drawn) [Compound 18, 17-Cyclopropylmethyl-6,7-didehydro-4,5-epoxy-6-fluoro-3-hydroxymorphinan Hydrochloride] | > 135 mg/kg | 0.18 mg/kg | 7.2 mg/kg | 

Reference: US4241065A, “Fluoro analogs of hydrocodone and oxycodone useful as analgesics, narcotic antagonists or both” (priority 1979, dated 1980)
